Source: paper PMC5896373 (Molecular Pharmacology, 2018)

Assays:
[1] = target: T1, P2X7-2Nβ 73–79 deletion (Homo sapiens, UniProt Q99572, DEL73-79/I21V/M24R/N16P/N25R/Q22R/R20V/S23N/T19I/Y26L); parameters: method as in Allsopp et al., 2017; settings: ref Allsopp et al., 2017; cited from earlier work
T1 construct: expressed in transfected cells; host or cells: Xenopus laevis oocytes (cRNA injection)
T1 sequence (Q99572 with tags, fused parts or gaps N16P/T19I/R20V/I21V/Q22R/S23N/M24R/N25R/Y26L/DEL73-79): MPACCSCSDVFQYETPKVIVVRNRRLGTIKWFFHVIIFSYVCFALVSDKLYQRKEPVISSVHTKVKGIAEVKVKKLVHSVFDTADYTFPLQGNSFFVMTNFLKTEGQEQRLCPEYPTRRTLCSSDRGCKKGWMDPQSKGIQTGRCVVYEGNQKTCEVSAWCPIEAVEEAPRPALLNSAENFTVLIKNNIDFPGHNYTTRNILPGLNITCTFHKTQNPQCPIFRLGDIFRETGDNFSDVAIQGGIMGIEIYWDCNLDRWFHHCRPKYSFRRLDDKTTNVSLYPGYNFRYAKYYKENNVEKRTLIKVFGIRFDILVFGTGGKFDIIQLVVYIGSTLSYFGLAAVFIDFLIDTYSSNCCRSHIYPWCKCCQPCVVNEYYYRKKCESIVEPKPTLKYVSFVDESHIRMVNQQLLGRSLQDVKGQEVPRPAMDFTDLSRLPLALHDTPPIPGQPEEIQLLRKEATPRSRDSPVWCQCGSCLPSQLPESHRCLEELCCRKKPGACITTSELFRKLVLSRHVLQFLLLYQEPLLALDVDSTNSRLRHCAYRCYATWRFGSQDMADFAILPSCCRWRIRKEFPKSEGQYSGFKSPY

[2] = target: T2, chimeric P2X7/1 receptor 279–285 (left flipper) (Homo sapiens, UniProt Q99572, DEL279-281/I21V/M24R/N16P/N25R/N284E/Q22R/R20V/S23N/T19I/T282Y/T283E/V285K/Y26L); parameters: method as in Allsopp et al., 2017; settings: chimera 279–285; ref Allsopp et al., 2017; cited from earlier work
T2 construct: expressed in transfected cells; host or cells: Xenopus laevis oocytes (cRNA injection)
T2 sequence (Q99572 with tags, fused parts or gaps N16P/T19I/R20V/I21V/Q22R/S23N/M24R/N25R/Y26L/DEL279-281/T282Y/T283E/N284E/V285K): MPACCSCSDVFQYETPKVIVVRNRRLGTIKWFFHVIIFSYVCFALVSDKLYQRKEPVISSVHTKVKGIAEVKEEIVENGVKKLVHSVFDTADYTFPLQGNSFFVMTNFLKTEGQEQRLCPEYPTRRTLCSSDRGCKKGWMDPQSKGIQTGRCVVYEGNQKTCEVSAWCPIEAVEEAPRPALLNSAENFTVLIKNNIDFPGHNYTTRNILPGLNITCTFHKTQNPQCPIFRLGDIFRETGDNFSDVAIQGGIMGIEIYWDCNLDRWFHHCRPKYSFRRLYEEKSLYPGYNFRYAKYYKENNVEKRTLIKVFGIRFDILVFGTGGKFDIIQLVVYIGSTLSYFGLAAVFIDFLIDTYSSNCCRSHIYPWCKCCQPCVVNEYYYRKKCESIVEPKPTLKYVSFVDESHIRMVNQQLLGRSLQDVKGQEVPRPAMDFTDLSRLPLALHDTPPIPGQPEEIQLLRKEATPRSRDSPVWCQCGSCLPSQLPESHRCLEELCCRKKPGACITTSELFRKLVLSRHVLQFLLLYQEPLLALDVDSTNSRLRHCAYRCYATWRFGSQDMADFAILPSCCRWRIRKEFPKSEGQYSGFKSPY

[3] = target: T3, P2X7R point mutant K110Y (Homo sapiens, UniProt Q99572, I21V/K110Y/M24R/N16P/N25R/Q22R/R20V/S23N/T19I/Y26L); parameters: method as in Allsopp et al., 2017; settings: ref Allsopp et al., 2017; cited from earlier work
T3 construct: expressed in transfected cells; host or cells: Xenopus laevis oocytes (cRNA injection)
T3 sequence (Q99572 1-595 N16P/T19I/R20V/I21V/Q22R/S23N/M24R/N25R/Y26L/K110Y): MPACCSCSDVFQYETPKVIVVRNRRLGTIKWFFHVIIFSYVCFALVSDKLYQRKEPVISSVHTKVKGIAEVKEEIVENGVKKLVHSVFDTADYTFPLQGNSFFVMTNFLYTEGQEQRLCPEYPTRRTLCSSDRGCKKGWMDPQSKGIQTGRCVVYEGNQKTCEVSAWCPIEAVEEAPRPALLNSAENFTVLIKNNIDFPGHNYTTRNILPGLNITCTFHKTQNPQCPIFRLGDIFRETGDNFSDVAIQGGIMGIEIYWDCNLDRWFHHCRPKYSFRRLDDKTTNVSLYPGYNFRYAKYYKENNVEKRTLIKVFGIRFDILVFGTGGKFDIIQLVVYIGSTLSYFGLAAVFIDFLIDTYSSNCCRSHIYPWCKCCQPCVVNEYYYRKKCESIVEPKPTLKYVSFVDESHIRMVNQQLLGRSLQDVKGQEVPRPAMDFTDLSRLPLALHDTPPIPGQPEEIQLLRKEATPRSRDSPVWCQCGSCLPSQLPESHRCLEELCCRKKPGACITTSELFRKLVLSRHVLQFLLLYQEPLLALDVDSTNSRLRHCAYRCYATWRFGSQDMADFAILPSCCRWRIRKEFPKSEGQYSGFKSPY

[4] = tested on: chimeric P2X7/1 receptor 112–118; experiment: cell-based; type: cell-based, human; settings: chimera 112–118
Description: Additional point mutants were made using the QuikChange mutagenesis kit (Stratagene California, La Jolla, CA). The production of the correct mutations and absence of coding errors was determined by DNA sequencing (Automated ABI Sequencing Service, University of Leicester, UK). cRNA was generated for the mutants and 50 nl (50 ng) was injected into manually defoliculated stage V Xenopus laevis oocytes using an Inject+Matic microinjector (J.A. Gabay, Inject+Matic, Geneva, Switzerland). Injected oocytes were stored at 16°C in ND96 buffer [in millimolar concentrations, NaCl 96, KCl 2, CaCl2 1.8, MgCl2 1, sodium pyruvate 5, and HEPES 5 (pH 7.6) supplemented with 50 μg/ml gentamycin and 50 μg/ml tetracycline]. Three to seven days postinjection two-electrode voltage clamp recordings were made from oocytes bathed in divalent-free ND96 buffer (in millimolar concentrations, NaCl 96, KCl 2, sodium pyruvate 5, HEPES 5, and 0.1 flufenamic acid, pH 7.6). Oocytes were voltage clamped at a holding potential of −60 mV with a GeneClamp500B amplifier (Molecular Devices).
Inhibition by the antagonists was expressed as the percentage of the peak current amplitude of an EC90 concentration of ATP recorded before the application of antagonist (ATP gave reproducible responses to ATP in the absence of antagonist). Inhibition curves were fitted with the Hill equation (variable slope) using GraphPad Prism 6 (GraphPad Software, San Diego, CA). […] Individual concentration-response curves were generated for individual experiments, and statistical analysis was carried out on the data generated. […] Data are shown as mean ± S.E.M. In all cases n ≥ 3 for all data points.

[5] = target: T4, P2X7R point mutant L97P (Homo sapiens, UniProt Q99572, I21V/L97P/M24R/N16P/N25R/Q22R/R20V/S23N/T19I/Y26L); experiment: cell-based
T4 construct: expressed in transfected cells; host or cells: Xenopus laevis oocytes (cRNA injection)
T4 sequence (Q99572 whole entry N16P/T19I/R20V/I21V/Q22R/S23N/M24R/N25R/Y26L/L97P): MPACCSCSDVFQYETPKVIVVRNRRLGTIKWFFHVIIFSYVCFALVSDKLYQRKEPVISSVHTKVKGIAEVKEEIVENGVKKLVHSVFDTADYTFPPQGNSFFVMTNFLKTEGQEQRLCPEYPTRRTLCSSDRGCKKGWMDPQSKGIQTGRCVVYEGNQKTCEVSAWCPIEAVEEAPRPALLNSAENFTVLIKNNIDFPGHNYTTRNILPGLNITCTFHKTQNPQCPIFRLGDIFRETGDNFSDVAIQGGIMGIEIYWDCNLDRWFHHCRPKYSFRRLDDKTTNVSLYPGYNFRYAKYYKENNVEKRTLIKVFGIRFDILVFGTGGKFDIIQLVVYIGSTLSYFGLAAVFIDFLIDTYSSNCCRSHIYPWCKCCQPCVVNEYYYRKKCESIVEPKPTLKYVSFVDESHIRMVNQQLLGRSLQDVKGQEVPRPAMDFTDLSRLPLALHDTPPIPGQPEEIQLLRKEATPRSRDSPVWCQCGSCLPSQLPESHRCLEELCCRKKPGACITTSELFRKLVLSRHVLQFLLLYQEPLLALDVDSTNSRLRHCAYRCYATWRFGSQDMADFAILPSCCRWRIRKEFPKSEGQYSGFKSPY
Description: (§1) The production of the correct mutations and absence of coding errors was determined by DNA sequencing (Automated ABI Sequencing Service, University of Leicester, UK). cRNA was generated for the mutants and 50 nl (50 ng) was injected into manually defoliculated stage V Xenopus laevis oocytes using an Inject+Matic microinjector (J.A. Gabay, Inject+Matic, Geneva, Switzerland). Injected oocytes were stored at 16°C in ND96 buffer [in millimolar concentrations, NaCl 96, KCl 2, CaCl2 1.8, MgCl2 1, sodium pyruvate 5, and HEPES 5 (pH 7.6) supplemented with 50 μg/ml gentamycin and 50 μg/ml tetracycline]. Three to seven days postinjection two-electrode voltage clamp recordings were made from oocytes bathed in divalent-free ND96 buffer (in millimolar concentrations, NaCl 96, KCl 2, sodium pyruvate 5, HEPES 5, and 0.1 flufenamic acid, pH 7.6). Oocytes were voltage clamped at a holding potential of −60 mV with a GeneClamp500B amplifier (Molecular Devices).
(§2) Inhibition by the antagonists was expressed as the percentage of the peak current amplitude of an EC90 concentration of ATP recorded before the application of antagonist (ATP gave reproducible responses to ATP in the absence of antagonist). Inhibition curves were fitted with the Hill equation (variable slope) using GraphPad Prism 6 (GraphPad Software, San Diego, CA). […]

[6] = tested on: P2X7R left flipper point mutant D280A; experiment: Two-electrode voltage clamp of ATP-evoked currents in Xenopus oocytes; type: cell-based, human
Description: as §1, §2

[7] = tested on: P2X7R left flipper point mutant K281A; experiment: as above; type: cell-based, human
Description: Injected oocytes were stored at 16°C in ND96 buffer [in millimolar concentrations, NaCl 96, KCl 2, CaCl2 1.8, MgCl2 1, sodium pyruvate 5, and HEPES 5 (pH 7.6) supplemented with 50 μg/ml gentamycin and 50 μg/ml tetracycline]. Three to seven days postinjection two-electrode voltage clamp recordings were made from oocytes bathed in divalent-free ND96 buffer (in millimolar concentrations, NaCl 96, KCl 2, sodium pyruvate 5, HEPES 5, and 0.1 flufenamic acid, pH 7.6). Oocytes were voltage clamped at a holding potential of −60 mV with a GeneClamp500B amplifier (Molecular Devices).
Electrophysiological traces were digitized with a Digidata 1322A and collected using pCLAMP 8.2 software (Molecular Devices, Menlo Park, CA). An EC90 concentration of ATP was used to test antagonist sensitivity for the P2X7-2Nβ and mutant receptors [ATP sensitivity of the chimeras and mutants are reported in [Allsopp et al. (2017)]] to standardize for any changes in ATP sensitivity.
Inhibition by the antagonists was expressed as the percentage of the peak current amplitude of an EC90 concentration of ATP recorded before the application of antagonist (ATP gave reproducible responses to ATP in the absence of antagonist). […] Any significant differences from the P2X7-2Nβ control were calculated by one-way analysis of variance, followed by Dunnett’s test (using GraphPad Prism 6). […]

[8] = tested on: P2X7R left flipper point mutant T282A; experiment: as above; type: cell-based, human
Description: as §1, §2

SMILES	fold decrease in antagonist sensitivity [1] [fold]	effect on antagonist sensitivity [2]	effect on antagonist sensitivity [3]	fold decrease in antagonist sensitivity relative to P2X7-2Nβ [4] [fold]	IC50 [5] [nM]	effect on antagonist sensitivity relative to P2X7-2Nβ [6]	fold decrease in antagonist sensitivity relative to P2X7-2Nβ [7] [fold]	effect on antagonist sensitivity relative to P2X7-2Nβ [8]
Cl.Cl.O=C(CC12CC3CC(CC(C3)C1)C2)Nc1cccc2nc(NCCNCCO)ccc12 [AZ10606120, N-[2-[[2-[(2-hydroxyethyl)amino]ethyl]amino]-5-quinolinyl]-2-tricyclo[3.3.1.13,7]dec-1-ylacetamide dihydrochloride]	40	no effect	increased	–	–	–	–	–
COc1ccc(CC(=O)NC(N=C(NC#N)Nc2cccc3ncccc23)C(C)(C)C)cc1OC (centres unmarked) [A740003, N-[1-[[(cyanoamino)(5-quinolinylamino)methylene]amino]-2,2-dimethylpropyl]-3,4-dimethoxybenzeneacetamide]	–	–	–	~3	398	no effect	~4	no effect
